Values of other authors, collected in patent US20070071819A1, “MULTIPLE UNIT MODIFIED RELEASE COMPOSITIONS OF CARBAMAZEPINE AND PROCESS FOR THEIR PREPARATION” (priority 2005, published 2007).

Conditions: below 4 μg/ml ineffective; greater than 12 μg/ml increased chances of side-effects

Structure (SMILES): NC(=O)N1c2ccccc2C=Cc2ccccc21 [carbamazepine, 5H-dibenz-[b,f]azepine-5-carboxamide]
- therapeutic blood serum concentration range: 4 to 12 µg/mL
